Test results reported in the NIST ThermoML archive (doi:10.1021/je9006713).
Where “and” joins values, the source holds several entries; their conditions need not be identical. Equal entries are not always repeated.

Assay: mn = molality of the nth substance listed, in mol/kg
Conditions: Liquid, glass piezometer

[I-].[NH4+] [ammonium iodide] + N
mass density
Conditions	m1 = 0.867	m1 = 1.827	m1 = 3.103	m1 = 4.856	m1 = 7.271	m1 = 11.18	m1 = 16.46
303.15 K, 10000 kPa	698.2 kg/m3	777.3 kg/m3	870.7 kg/m3	988.2 kg/m3	1109 kg/m3	1234 kg/m3	1329.5 kg/m3
303.15 K, 15000 kPa	702.3 kg/m3	780.7 kg/m3	874.3 kg/m3	992.3 kg/m3	1112.4 kg/m3	1236.7 kg/m3	1332.2 kg/m3
303.15 K, 20000 kPa	706.3 kg/m3	783.9 kg/m3	877.8 kg/m3	996.2 kg/m3	1115.2 kg/m3	1238.9 kg/m3	1334.5 kg/m3
303.15 K, 25000 kPa	710.1 kg/m3	787.4 kg/m3	881.1 kg/m3	999.8 kg/m3	1118 kg/m3	1241.2 kg/m3	1336.8 kg/m3
303.15 K, 30000 kPa	713.7 kg/m3	791 kg/m3	884.5 kg/m3	1003.5 kg/m3	1120.4 kg/m3	1243.5 kg/m3	–
313.15 K, 10000 kPa	683.7 kg/m3	762.9 kg/m3	857.4 kg/m3	974.7 kg/m3	1097.5 kg/m3	1222.9 kg/m3	1322 kg/m3
313.15 K, 15000 kPa	688 kg/m3	766.9 kg/m3	861.1 kg/m3	978.5 kg/m3	1100.9 kg/m3	1225.9 kg/m3	1323.9 kg/m3
313.15 K, 20000 kPa	691.9 kg/m3	770.7 kg/m3	864.6 kg/m3	982.3 kg/m3	1103.9 kg/m3	1228.8 kg/m3	1326.5 kg/m3
313.15 K, 25000 kPa	695.7 kg/m3	774.7 kg/m3	867.8 kg/m3	986.1 kg/m3	1107.3 kg/m3	1231.4 kg/m3	1329.2 kg/m3
313.15 K, 30000 kPa	699.6 kg/m3	778.6 kg/m3	871.3 kg/m3	989.9 kg/m3	1110.4 kg/m3	1233.7 kg/m3	1338.7 kg/m3 and 1331.4 kg/m3
323.15 K, 10000 kPa	668.4 kg/m3	748.7 kg/m3	844.3 kg/m3	960.5 kg/m3	1085.9 kg/m3	1212.3 kg/m3	1312 kg/m3
323.15 K, 15000 kPa	672.8 kg/m3	752.7 kg/m3	848.1 kg/m3	964.8 kg/m3	1089.2 kg/m3	1214.9 kg/m3	1314.6 kg/m3
323.15 K, 20000 kPa	677 kg/m3	756.8 kg/m3	852 kg/m3	969 kg/m3	1092.5 kg/m3	1217 kg/m3	1316.8 kg/m3
323.15 K, 25000 kPa	681.3 kg/m3	760.7 kg/m3	855.9 kg/m3	973.3 kg/m3	1095.5 kg/m3	1219.2 kg/m3	1319.4 kg/m3
323.15 K, 30000 kPa	685.5 kg/m3	764.7 kg/m3	859.8 kg/m3	977.3 kg/m3	1098.5 kg/m3	1221.4 kg/m3	1321.6 kg/m3
333.15 K, 10000 kPa	650.5 kg/m3	732.5 kg/m3	829.3 kg/m3	947.6 kg/m3	1075.9 kg/m3	1199.8 kg/m3	1302.5 kg/m3
333.15 K, 15000 kPa	655.7 kg/m3	737 kg/m3	833.5 kg/m3	951.7 kg/m3	1078.8 kg/m3	1202.6 kg/m3	1305 kg/m3
333.15 K, 20000 kPa	660.8 kg/m3	741.3 kg/m3	837.7 kg/m3	955.5 kg/m3	1081.7 kg/m3	1205.5 kg/m3	1307.6 kg/m3
333.15 K, 25000 kPa	666 kg/m3	745.9 kg/m3	841.8 kg/m3	959.4 kg/m3	1084.6 kg/m3	1208 kg/m3	1310.2 kg/m3
333.15 K, 30000 kPa	671.3 kg/m3	749.9 kg/m3	845.6 kg/m3	963.1 kg/m3	1087.3 kg/m3	1210.2 kg/m3	1312.4 kg/m3
